In PubChem BioAssay AID1259408 (Genetic Toxicology Data Bank (GENE-TOX), 2018):
Active and inactive are the calls of the source. The rule behind the calls is not given here.

System: GENE-TOX genotoxicity assays, various organisms and cells
Experiment: GENE-TOX mutagenicity studies
Details: for call: Assay Type: In vivo carcinogenicity studies
[1] = Species/Cell Type: Bacillus subtilis (H17 vs M45), Assay Type: Rec-assay, spot test, DNA effects (bacterial DNA repair), Assay Code: REWT, Evaluation Type: Evaluation A (Pre-1980)
[2] = Species/Cell Type: Chinese hamster lung (V79) cells, Assay Type: Forward gene mutation at the HPRT or ouabain locus, Assay Code: V79+, Evaluation Type: Evaluation A (Pre-1980)
[3] = Species/Cell Type: Nonhuman, Assay Code: CCG+L, Evaluation Type: Evaluation A (Pre-1980)
[4] = Species/Cell Type: Saccharomyces cerevisiae, Assay Type: Mitotic recombination or gene conversion, Assay Code: YEH-, Evaluation Type: Evaluation A (Pre-1980)
[5] = Species/Cell Type: Salmonella typhimurium (one or more of the five standard strains: TA98, TA100, TA1535, TA1537, and TA1538), Assay Type: Histidine reverse gene mutation, Ames assay, Assay Code: SALT, Evaluation Type: Evaluation A (Pre-1980)
[6] = Species/Cell Type: Salmonella typhimurium, Assay Type: Forward and reverse gene mutation, host-mediated assay, Assay Code: HMA-, Evaluation Type: Evaluation A (Pre-1980)
[7] = Species/Cell Type: Bacillus subtilis (H17 vs M45), Assay Type: Rec-assay, spot test, DNA effects (bacterial DNA repair), Assay Code: REW+, Evaluation Type: Evaluation A (Pre-1980)
[8] = Species/Cell Type: Salmonella typhimurium (one or more of the five standard strains: TA98, TA100, TA1535, TA1537, and TA1538), Assay Type: Histidine reverse gene mutation, Ames assay, Assay Code: SAL+, Evaluation Type: Evaluation A (Pre-1980)
[9] = Species/Cell Type: Drosophila melanogaster, Assay Type: Sex-linked recessive lethal gene mutation, Assay Code: SRLT, Evaluation Type: Evaluation A (Pre-1980)
[10] = Species/Cell Type: Salmonella typhimurium (one or more of the five standard strains: TA98, TA100, TA1535, TA1537, and TA1538), Assay Type: Histidine reverse gene mutation, Ames assay, Assay Code: SAL-, Evaluation Type: Evaluation A (Pre-1980)
[11] = Species/Cell Type: Human, Assay Type: Sister-chromatid exchange (SCE) in vitro, Assay Code: SC1T, Evaluation Type: Evaluation B (Post-1980)
[12] = Species/Cell Type: Human lymphocytes, Assay Type: Sister-chromatid exchange (SCE) in vitro, Assay Code: SCL+D, Dose Response: With dose response, Evaluation Type: Evaluation B (Post-1980)
[13] = Species/Cell Type: Human, Assay Type: Sister-chromatid exchange (SCE) in vitro, Assay Code: SC1+D, Dose Response: With dose response, Evaluation Type: Evaluation B (Post-1980)

`COc1cc2c(c3oc(=O)c4c(c13)CCC4=O)[C@@H]1CCO[C@@H]1O2` was tested, and the mutagenic call [1] was “no conclusion”, the mutagenic call [2] was “active; positive” and the mutagenic call (Species/Cell Type: Escherichia coli polA (W3110 vs P3478), Assay Type: Rec-assay, DNA effects (bacterial DNA repair), Assay Code: RE2-, Evaluation Type: Evaluation A (Pre-1980)) was “inactive; negative”. For the same compound, the mutagenic call (Species/Cell Type: Escherichia coli polA (W3119 vs P3478), Assay Type: Rec-assay, DNA effects (bacterial DNA repair), Assay Code: RE1T, Evaluation Type: Evaluation A (Pre-1980)) was “no conclusion”, the mutagenic call (Species/Cell Type: Human diploid fibroblasts, Assay Type: Unscheduled DNA synthesis (UDS) in vitro, DNA effects, Assay Code: UDH-*, Activation: With metabolic activation, Evaluation Type: Evaluation A (Pre-1980)) was “inactive; negative” and the call [3] was “active; positive”. For the same compound, the mutagenic call (Species/Cell Type: Nonhuman, Assay Type: Sister-chromatid exchange (SCE) in vitro, Assay Code: SC2+D*, Activation: With metabolic activation, Dose Response: With dose response, Evaluation Type: Evaluation B (Post-1980)) was “active; positive”, the mutagenic call (Species/Cell Type: Rat primary hepatocytes, Assay Type: Unscheduled DNA synthesis (UDS) in vitro, DNA effects, Assay Code: UDP-, Evaluation Type: Evaluation A (Pre-1980)) was “inactive; negative” and the mutagenic call [4] was “inactive; negative”. The mutagenic call [5] was “no conclusion”, the mutagenic call [6] was “inactive; negative” and the mutagenic call (Species/Cell Type: Syrian hamster embryo (SHE) cells, Assay Type: Cell transformation, clonal assay, Assay Code: CTC+, Evaluation Type: Evaluation A (Pre-1980)) was “active; positive”.
`Nc1ccc(Cc2ccc(N)cc2)cc1` was tested, and the call (Species/Cell Type: Nonhuman, Assay Code: CCG+, Evaluation Type: Evaluation A (Pre-1980)) was “active; positive” and the mutagenic call (Species/Cell Type: Nonhuman, Assay Type: Sister-chromatid exchange (SCE) in vivo, Assay Code: SC3+, Evaluation Type: Evaluation B (Post-1980)) was “active; positive”.
For `O=C1OCCN1N=Cc1ccc([N+](=O)[O-])o1`, the mutagenic call [7] was “active; positive”, the mutagenic call (Species/Cell Type: Drosophila melanogaster, Assay Type: Sex-linked recessive lethal gene mutation, Assay Code: SRL+, Evaluation Type: Evaluation A (Pre-1980)) was “active; positive” and the mutagenic call (Species/Cell Type: Escherichia coli WP2, Assay Type: Tryptophan reverse gene mutation, Assay Code: WP2+, Evaluation Type: Evaluation A (Pre-1980)) was “active; positive”. For the same compound, the mutagenic call (Species/Cell Type: Escherichia coli WP2 UVRA, Assay Type: Tryptophan reverse gene mutation, Assay Code: WPU+, Evaluation Type: Evaluation A (Pre-1980)) was “active; positive”, the mutagenic call (Species/Cell Type: Human diploid fibroblasts, Assay Type: Unscheduled DNA synthesis (UDS) in vitro, DNA effects, Assay Code: UDH-, Evaluation Type: Evaluation A (Pre-1980)) was “inactive; negative” and the mutagenic call (Species/Cell Type: Human lymphocytes, Assay Type: Sister-chromatid exchange (SCE) in vitro, Assay Code: SCL+, Evaluation Type: Evaluation B (Post-1980)) was “active; positive”. The mutagenic call (Species/Cell Type: Human lymphocytes, Assay Type: Sister-chromatid exchange (SCE) in vitro, Assay Code: SCLT, Evaluation Type: Evaluation A (Pre-1980)) was “no conclusion”, the mutagenic call (Species/Cell Type: Human, Assay Type: Sister-chromatid exchange (SCE) in vitro, Assay Code: SC1+, Evaluation Type: Evaluation B (Post-1980)) was “active; positive” and the mutagenic call (Species/Cell Type: Human, Assay Type: Sister-chromatid exchange (SCE) in vitro, Assay Code: SC1T, Evaluation Type: Evaluation A (Pre-1980)) was “no conclusion”.
In the case of `CCN(CCO)CCCNc1c2ccccc2nc2cc3ccccc3cc12`, the mutagenic call (Species/Cell Type: Chinese hamster ovary (CHO) cells, Assay Type: Forward gene mutation at the HPRT locus, Assay Code: CHOT, Evaluation Type: Evaluation B (Post-1980)) is reported as “no conclusion”.
In the case of `O[C@@H]1[C@@H](O)c2c(cc3ccc4cccc5ccc2c3c45)C2O[C@@H]21` (some centres not stated), the mutagenic call [8] is reported as “active; positive”.
With `O=NN1CCCCC1C(=O)O` (configuration not stated) the mutagenic call [9] was “no conclusion”.
With `CC1(C)[C@H]2CC[C@]1(C)[C@H](O)C2` the mutagenic call [4] was “inactive; negative” and the mutagenic call [10] was “inactive; negative”.
`Cc1c(C2(c3cc(C(C)C)c(O)c(Br)c3C)OS(=O)(=O)c3ccccc32)cc(C(C)C)c(O)c1Br` was tested, and the mutagenic call [1] was “no conclusion”.
In the case of `CC(=O)c1ccc([N+](=O)[O-])[nH]1`, the mutagenic call [8] is reported as “active; positive”.
In the case of `O=[N+]([O-])c1cccc2ccccc12`, the call (Species/Cell Type: Nonhuman, Assay Code: CCG-, Evaluation Type: Evaluation A (Pre-1980)) is reported as “inactive; negative”.
For `O=S(=O)(O)c1c(N=Nc2c(O)ccc3ccccc23)ccc2ccccc12`, the mutagenic call [10] was “inactive; negative”.
In the case of `Cc1cc(C(=O)NCCc2ccc(S(=O)(=O)NC(=O)NN3CCCCCC3)cc2)no1`, the mutagenic call (Species/Cell Type: Nonhuman, Assay Type: Sister-chromatid exchange (SCE) in vivo, Assay Code: SC3T, Evaluation Type: Evaluation B (Post-1980)) is reported as “no conclusion”.
In the case of `CN(N=O)C(=O)Nc1ccc(F)cc1`, the mutagenic call (Species/Cell Type: Nonhuman, Assay Type: Sister-chromatid exchange (SCE) in vitro, Assay Code: SC2+D, Dose Response: With dose response, Evaluation Type: Evaluation B (Post-1980)) is reported as “active; positive”.
`CC1=C(/C=C/C(C)=C/C=C/C(C)=C/C=C/C=C(C)/C=C/C=C(C)/C=C/C2=C(C)CCCC2(C)C)C(C)(C)CCC1` was tested, and the mutagenic call (Species/Cell Type: Bacillus subtilis (H17 vs M45T), Assay Type: Rec-assay, spot test, DNA effects (bacterial DNA repair), Assay Code: REXT, Evaluation Type: Evaluation A (Pre-1980)) was “no conclusion” and the mutagenic call (Species/Cell Type: Mammalian polychromatic erythrocytes, Assay Type: Micronucleus test, chromosome aberrations, Assay Code: MNTT, Evaluation Type: Evaluation B (Post-1980)) was “no conclusion”.
For `COc1ccc2c(c1)CCC(c1ccccc1)=C2c1ccc(OCCN2CCCC2)cc1`, the mutagenic call (Species/Cell Type: Rabbit, Sex: Male, Assay Type: Sperm morphology, Assay Code: SPR+, Evaluation Type: Evaluation A (Pre-1980)) was “active; positive”.
`Nc1nc(=O)n([C@H]2C[C@H](O)[C@@H](CO)O2)cc1Br` was tested, and the mutagenic call (Species/Cell Type: Arabidopsis species, Assay Type: Gene mutation, Assay Code: ARM+, Evaluation Type: Evaluation A (Pre-1980)) was “active; positive”, the mutagenic call [9] was “no conclusion” and the mutagenic call (Species/Cell Type: Human lymphocytes, Assay Type: Sister-chromatid exchange (SCE) in vitro, Assay Code: SCLT, Evaluation Type: Evaluation B (Post-1980)) was “no conclusion”. The mutagenic call [11] was “no conclusion” and the mutagenic call (Species/Cell Type: Syrian hamster embryo (SA7/SHE) cells, Assay Type: Cell transformation, viral enhanced, Assay Code: CT7+, Evaluation Type: Evaluation A (Pre-1980)) was “active; positive”.
`Cc1ncc(COP(=O)(O)O)c(C)c1O` was tested, and the mutagenic call [12] was “active; positive” and the mutagenic call [13] was “active; positive”.
`C=C1C[C@@]23CC[C@H]4[C@@](C)(CCC[C@@]4(C)C(=O)O[C@@H]4O[C@H](CO)[C@@H](O)[C@H](O)[C@H]4O)[C@@H]2CC[C@]1(O[C@@H]1O[C@H](CO)[C@@H](O)[C@H](O)[C@H]1O[C@@H]1O[C@H](CO)[C@@H](O)[C@H](O)[C@H]1O)C3` was tested, and the mutagenic call [11] was “no conclusion”.
In the case of `Clc1cccc(Cl)c1`, the mutagenic call (Species/Cell Type: Mammalian polychromatic erythrocytes, Assay Type: Micronucleus test, chromosome aberrations, Assay Code: MNT+, Evaluation Type: Evaluation B (Post-1980)) is reported as “active; positive”.
`O=[Se]=O` was tested, and the mutagenic call [7] was “active; positive”, the mutagenic call [12] was “active; positive” and the mutagenic call [13] was “active; positive”. The mutagenic call (Species/Cell Type: Nonhuman, Assay Type: Sister-chromatid exchange (SCE) in vitro, Assay Code: SC2-, Evaluation Type: Evaluation B (Post-1980)) was “inactive; negative”.
For `O=C1Nc2ccc([N+](=O)[O-])cc2C1=O`, the mutagenic call [8] was “active; positive”.
For `OCCN(CCO)CCO`, the mutagenic call (Species/Cell Type: Allium cepa, Assay Type: Chromosome aberrations, Assay Code: ALC+D, Dose Response: With dose response, Evaluation Type: Evaluation A (Pre-1980)) was “active; positive”.
`C#CC(OC(=O)NC1CCCCC1)(c1ccccc1)c1ccccc1` was tested, and the mutagenic call (Species/Cell Type: Human diploid fibroblasts, Assay Type: Unscheduled DNA synthesis (UDS) in vitro, DNA effects, Assay Code: UDHT, Evaluation Type: Evaluation A (Pre-1980)) was “no conclusion” and the mutagenic call [8] was “active; positive”.
`O=C1C=CCO1` was tested, and the mutagenic call (Species/Cell Type: Bacillus subtilis (H17 vs M45), Assay Type: Rec-assay, spot test, DNA effects (bacterial DNA repair), Assay Code: REW-, Evaluation Type: Evaluation A (Pre-1980)) was “inactive; negative”.
In the case of `CC(=O)O/C=C/Cc1cccc2c1OCO2`, the mutagenic call [5] is reported as “no conclusion”.
With `C[C@H]1CCC[C@@]2(C)CCCC[C@]12O` the mutagenic call [10] was “inactive; negative”.
With `CN(C)CCC(=O)c1ccc2c(c1)OCO2` the mutagenic call [6] was “inactive; negative”.
`CC1CN(N=O)CC(C)N1C(=O)c1ccccc1` (configuration not stated) was tested, and the mutagenic call [5] was “no conclusion”.
In the case of `Cc1c2ccccc2c(CO)c2c3c(ccc12)[C@@H](O)[C@H](O)C=C3`, the mutagenic call [2] is reported as “active; positive” and the call [3] is reported as “active; positive”.
With `O=C(COc1ccc(Br)cc1CN1CCCCC1)N/N=C\c1ccccc1` the mutagenic call (Species/Cell Type: Saccharomyces cerevisiae, Assay Type: Reverse gene mutation, Assay Code: YERT, Evaluation Type: Evaluation A (Pre-1980)) was “no conclusion”.
